Source: patent US20080311232A1, “Cooling Compounds” (Givaudan, SA, priority 2007, published 2008)

Legend:
Type in all cases: in vivo, human
[1] = test system: panelist; assay: Application in chewing gum: 2 g gum chewed by a panelist for 20 minutes, cooling perception; details: for cooling perception rated higher than the control: control = peppermint oil gum
Method: The gum base, and half of the sorbitol were mixed, maltitol syrup was added and then mixed with the gum mass. The rest of the powdered ingredients (rest of the sorbitol, mannitol, ace-K, aspartame) were added and mixed for about 1 minute, at which point glycerine was added and the gum mass was mixed for about 5 minutes, to form the blank chewing gum mass. Peppermint oil was worked into the mass and a piece of the resulting gum (2 g) was chewed by a panelist for […] and spat out. […] The cooling perception lasted far 50 minutes.
The chemical in the peppermint oil was worked into the blank chewing gum mass from Example 12 a) and a piece of the resulting gum (2 g) was chewed by a panelist for 20 minutes and spat out. […] The cooling perception was rated 43% higher than the control and lasted for over 60 minutes.
The chemical and peppermint oil was worked into the blank chewing gum mass from Example 12 a) and a piece of the resulting gum (2 g) was chewed by a panelist for 20 minutes and spat out. […] The cooling perception was rated 40% higher than the control and lasts for over 60 minutes.
The chemical in the peppermint oil was worked into the blank chewing gum mass from Example 12 a) and a piece of the resulting gum (2 g) was chewed by a panelist for 20 minutes and spat out. […] The cooling perception was rated 27% higher than the control and lasted for over 60 minutes.

[2] = test system: panelists; assay: Cooling intensity: panelists taste aqueous solutions, compared with menthol at 2 ppm; details: tasted by small group of panelists
[3] = test system: panelist; assay: Application in toothpaste: toothgel brushed on a panelist's teeth, cooling perception; details: for cooling perception rated higher than the control: control = peppermint oil toothgel
Method: The materials were mixed in the toothgel, a piece of toothgel was put on a toothbrush and a panelist's teeth were brushed. The mouth was rinsed with water and the water spat out. […] The cooling perception lasted for 40 minutes.
The materials were mixed in the toothgel, a piece of toothgel was put on a toothbrush and a panelist's teeth were brushed. The mouth was rinsed with water and the water spat out. […] The cooling perception was rated 24% higher than the control and lasted for 70 minutes.
The materials were mixed in the toothgel, a piece of toothgel was put on a toothbrush and a panelist's teeth were brushed. The mouth was rinsed with water and the water spat out. […] The cooling perception was rated 18% higher than the control and lasted for 60 minutes.
The materials were mixed in the toothgel, a piece of toothgel was put on a toothbrush and a panelist's teeth were brushed. The mouth was rinsed with water and the water spat out. […] The cooling perception was rated 95% higher than the control and lasted for 65 minutes.
The materials were mixed in the toothgel, a piece of toothgel was put on a toothbrush and a panelist's teeth were brushed. The mouth was rinsed with water and the water spat out. […] The cooling perception was rated 100% higher than the control and lasted for 40 minutes.
The materials were mixed in the toothgel, a piece of toothgel was put on a toothbrush and a panelist's teeth were brushed. The mouth was rinsed with water and the water spat out. […] The cooling perception was rated 30% higher than the control and lasted for over 35 minutes.

[4] = chewing gum: 0.50 g of 1% solution of compound in peppermint oil
[5] = toothgel: 0.10 g of 1% solution of compound in peppermint oil + 0.40 g peppermint oil
[6] = toothgel: 0.50 g of 1% solution of compound in peppermint oil
[7] = chewing gum: 0.05 g of 1% solution of compound in peppermint oil + 0.45 g peppermint oil
[8] = toothgel: 0.05 g of 1% solution of compound in peppermint oil + 0.45 g peppermint oil
[9] = toothgel: 0.025 g compound + 0.50 g peppermint oil

`CCOC(=O)CC(=O)O[C@@H]1C2(C)CCC(C2)C1(C)C` (stereo partly drawn) [Example 6, Ethyl (2R)-1,3,3-trimethylbicyclo[2.2.1]heptan-2-yl malonate] was tested, and the cooling sensation felt [1, 4] was “cooling sensation”, the “duration of cooling perception” value [1, 4] was “over 60 minutes” and the “cooling perception rated higher than the control” value [1, 4] was 27%. The “Concentration with a cooling intensity similar to or slightly higher than that of a solution of menthol at 2 ppm” value (“Concentration” for short) [2] was 0.10 ppm, the cooling sensation felt [3, 5] was “intense cooling sensation” and the “duration of cooling perception” value [3, 5] was 60 min. For the same compound, the “cooling perception rated higher than the control” value [3, 5] was 18%, the cooling sensation felt [3, 6] was “intense cooling sensation” and the “duration of cooling perception” value [3, 6] was 65 min. For the same compound, the “cooling perception rated higher than the control” value [3, 6] was 95%.
`CC(C)[C@@H]1CC[C@@H](C)C[C@H]1O` [l-Menthol, reference compound] was tested, and the “Concentration” value [2] was 2.0 ppm.
With `CN(C)C(=O)CCC(=O)O[C@@H]1C2(C)CCC(C2)C1(C)C` (stereo partly drawn) [Example 7, (2R)-1,3,3-trimethylbicyclo[2.2.1]heptan-2-yl 4-(dimethylamino)-4-oxobutanoate] the “Concentration” value [2] was 0.002 ppm.
In the case of `CC1(C)[C@@H]2CC[C@@]1(C)[C@H](OC(=O)CCC(=O)O)C2` [Example 4, 4-oxo-4-((1R,2R,4R)-1,7,7-trimethylbicyclo[2.2.1]heptan-2-yloxy)butanoic acid], the cooling sensation felt [1, 7] is reported as “cooling sensation”, the “duration of cooling perception” value [1, 7] is reported as “over 60 minutes” and the “cooling perception rated higher than the control” value [1, 7] is reported as 40%. The “Concentration” value [2] was 0.001 ppm, the cooling sensation felt [3, 8] was “intense cooling sensation” and the “duration of cooling perception” value [3, 8] was 40 min. For the same compound, the “cooling perception rated higher than the control” value [3, 8] was 100%.
`O=C(O)CCC(=O)O[C@H]1C[C@@H]2CC[C@H]1C2` [Example 3, 4-((1S,2S,4R)-bicyclo[2.2.1]heptan-2-yloxy)-4-oxobutanoic acid] was tested, and the cooling sensation felt [1, 4] was “cooling sensation”, the “duration of cooling perception” value [1, 4] was “over 60 minutes” and the “cooling perception rated higher than the control” value [1, 4] was 43%. For the same compound, the cooling sensation felt [3, 5] was “intense cooling sensation”, the “duration of cooling perception” value [3, 5] was 70 min and the “cooling perception rated higher than the control” value [3, 5] was 24%.
For `CC1(C)[C@H]2CC[C@]1(C)[C@H](OC(=O)CCC(=O)O)C2` [Example 1, 4-oxo-4-(1S,2R,4S)1,7,7-trimethylbicyclo[2.2.1]heptan-2-yloxybutanoic acid], the “Concentration” value [2] was 0.003 ppm.
`CCNC(=O)C1CC(C)CCC1C(C)C` (centres unmarked) [WS-3, N-ethyl p-menthanecarboxamide, reference compound] was tested, and the “Concentration” value [2] was 1.5 ppm.
With `C[C@@H](N)C(=O)OC1C2(C)CCC(C2)C1(C)C` (stereo partly drawn) [Example 8, D-alanine fenchyl ester] the “Concentration” value [2] was 0.20 ppm, the cooling sensation felt [3, 9] was “intense cooling sensation” and the “duration of cooling perception” value [3, 9] was “over 35 minutes”. The “cooling perception rated higher than the control” value [3, 9] was 30%.
In the case of `CC1(C)[C@H]2CC[C@](C)(C2)[C@H]1OC(=O)CCC(=O)O` [Example 9, 4-oxo-4-((1R,2R,4S)-1,3,3-trimethylbicyclo[2.2.1]heptan-2-yloxy)butanoic acid], the “Concentration” value [2] is reported as 0.10 ppm.
